# Test results from patent US20240148821A1, “PHARMACEUTICAL USE OF CYCLIC PEPTIDE COMPOUND” (CHUGAI SEIYAKU KABUSHIKI KAISHA, priority 2021, published 2024).
# Numbered stars: 1 amine (or outer) side, 2 acyl side, 3 side chain; on linkers, the order of the positions; unused ones are H or OH. Bridge positions count the residues as written; N and C are the ends. Square brackets hold non-standard residues; d marks the D form. Peptide text beside a SMILES is read from it. * marks the point of attachment. hPhe(3-Cl-4-CF3) = N[C@@H](CCc1ccc(C(F)(F)F)c(Cl)c1)C(=O)O; hPhe(3-F,4-CF3) = N[C@@H](CCc1ccc(C(F)(F)F)c(F)c1)C(=O)O; hPhe(4-CF3) = N[C@@H](CCc1ccc(C(F)(F)F)cc1)C(=O)O; NMePhe(4-Cl) = CN[C@@H](Cc1ccc(Cl)cc1)C(=O)O; NMePhe(4-Me) = CN[C@@H](Cc1ccc(C)cc1)C(=O)O; NMeGly(cPent) = CN[C@H](C(=O)O)C1CCCC1; X132 = O=C(CN(CCOCC(F)(F)F)[*:1])[*:2]; X78 = O=C(CN(CCc1cccnc1)[*:1])[*:2]; NMeCha = CN[C@@H](CC1CCCCC1)C(=O)O; X76 = C=CC[C@H](CC(=O)[*:2])N[*:1]; cisHyp = O=C(O)[C@@H]1C[C@H](O)CN1; NMeChg = CN[C@H](C(=O)O)C1CCCCC1; NMeF = CN[C@@H](Cc1ccccc1)C(=O)O; NMeI = CC[C@H](C)[C@H](NC)C(=O)O; NMeE = CN[C@@H](CCC(=O)O)C(=O)O; NMeD = CN[C@@H](CC(=O)O)C(=O)O; NMeL = CN[C@@H](CC(C)C)C(=O)O; d(β3hA) = C[C@@H](N)CC(=O)O; Morpholide = C1CN(*)CCO1; NAllylGly = C=CCNCC(=O)O; NMeA = CN[C@@H](C)C(=O)O; Piperidide = C1CCN(*)CC1; Pyrrolidide = C1CCN(*)C1; Ac5c = NC1(C(=O)O)CCCC1; Aze = O=C(O)[C@@H]1CCN1; Sar = CNCC(=O)O
# Target: protein-protein interaction between Kras and SOS1 (biotin-tagged human Kras loaded with GDP, His-tagged human SOS1) (Homo sapiens (Human), UniProt P01116, G12D)
# Test: Protein-protein interaction inhibition between Kras and SOS1 (KrasG12D-SOS PPI) using AlphaScreen;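 also: kras produced in E. coli, Ni-coupled donor beads and streptavidin acceptor beads, excitation 680 nm with emission detected at 520–620 nm via singlet oxygen transfer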
# Assay type: biochemical
# Conditions: AlphaScreen; biotin-tagged human Kras loaded with GDP, His-tagged human SOS1; read-out: KRAS G12D-SOS PPI IC50
row,SMILES,IC50
1,CC[C@H](C)[C@@H]1NC(=O)[C@H](CC(C)C)N(C)C(=O)C[C@@H](C(=O)N2CCOCC2)N(C)C(=O)[C@H](C2CCCC2)N(C)C(=O)C2(CCCC2)NC(=O)[C@H](CCC(=O)N2CCCCC2)N(C)C(=O)[C@H](CCc2ccc(C(F)(F)F)c(Cl)c2)NC(=O)CN(C)C(=O)[C@H](CC2CCCCC2)N(C)C(=O)[C@@H]2CCN2C(=O)[C@H](C)N(C)C1=O [Compound 2112] ([NMeL]I[NMeA][Aze][NMeCha][Sar][hPhe(3-Cl-4-CF3)][NMeE](Piperidide)[Ac5c][NMeGly(cPent)][NMeD]-Morpholide; lactam N-11),11 nM
2,"CC[C@H](C)[C@@H]1NC(=O)[C@H](CC(C)C)N(C)C(=O)C[C@@H](C(=O)N2CCCC2)N(C)C(=O)[C@H]([C@@H](C)CC)N(C)C(=O)C2(CCCC2)NC(=O)[C@@H]2CCCN2C(=O)[C@H](CCc2ccc(C(F)(F)F)c(F)c2)NC(=O)CN(C)C(=O)[C@H](C2CCCC2)N(C)C(=O)[C@@H]2CCN2C(=O)[C@H](C)N(C)C1=O [Compound 313] ([NMeL]I[NMeA][Aze][NMeGly(cPent)][Sar][hPhe(3-F,4-CF3)]P[Ac5c][NMeI][NMeD]-Pyrrolidide; lactam N-11)",4.2 nM
3,C=CC[C@@H]1CC(=O)N(C)[C@@H](CC(C)C)C(=O)N[C@@H]([C@@H](C)CC)C(=O)N(C)[C@@H](C)C(=O)N2CC[C@H]2C(=O)N(C)[C@@H](Cc2ccc(C)cc2)C(=O)N(C)CC(=O)N[C@@H](CCc2ccc(C(F)(F)F)c(Cl)c2)C(=O)N2CCC[C@H]2C(=O)NC2(CCCC2)C(=O)N(C)[C@@H]([C@@H](C)CC)C(=O)N1 [Compound 1883] (cyclo([Ac5c][NMeI][X76][NMeL]I[NMeA][Aze][NMePhe(4-Me)][Sar][hPhe(3-Cl-4-CF3)]P)),65 nM
4,C=CCN1CC(=O)NC2(CCCC2)C(=O)N(C)[C@@H](C2CCCCC2)C(=O)N(C)[C@H](C(=O)N2CCCCC2)CC(=O)N(C)[C@@H](CC(C)C)C(=O)N[C@@H]([C@@H](C)CC)C(=O)N(C)CC(=O)N(C)CC(=O)N(C)[C@@H](CC2CCCCC2)C(=O)N(C)CC(=O)N[C@@H](CCc2ccc(C(F)(F)F)c(Cl)c2)C1=O [Compound 899] ([NMeL]I[Sar][Sar][NMeCha][Sar][hPhe(3-Cl-4-CF3)][NAllylGly][Ac5c][NMeChg][NMeD]-Piperidide; lactam N-11 (inferred); C-terminus assumed),1.9 nM
5,CC[C@H](C)[C@@H]1NC(=O)[C@H](CC(C)C)N(C)C(=O)C[C@@H](C(=O)N2CCCCC2)N(C)C(=O)[C@H](C2CCCCC2)N(C)C(=O)C2(CCCC2)NC(=O)CN(CCc2cccnc2)C(=O)[C@H](CCc2ccc(C(F)(F)F)c(Cl)c2)NC(=O)CN(C)C(=O)[C@H](CC2CCCCC2)N(C)C(=O)CN(C)C(=O)CN(C)C1=O [Compound 2032] ([NMeL]I[Sar][Sar][NMeCha][Sar][hPhe(3-Cl-4-CF3)][X78][Ac5c][NMeChg][NMeD]-Piperidide; lactam N-11 (inferred); C-terminus assumed),1.2 nM
6,CC[C@H](C)[C@@H]1NC(=O)[C@H](C)N(C)C(=O)C[C@@H](C)NC(=O)[C@H](CC(C)C)N(C)C(=O)[C@H](Cc2ccccc2)N(C)C(=O)[C@@H]2C[C@H](O)CN2C(=O)[C@H](CCc2ccc(C(F)(F)F)cc2)NC(=O)CN(C)C(=O)[C@H](Cc2ccc(Cl)cc2)N(C)C(=O)CN(C)C(=O)CN(C)C1=O [Compound 1373] (cyclo(I[Sar][Sar][NMePhe(4-Cl)][Sar][hPhe(4-CF3)][cisHyp][NMeF][NMeL][d(β3hA)][NMeA])),7.7 nM
7,CC[C@H](C)[C@@H]1NC(=O)[C@H](CC(C)C)N(C)C(=O)C[C@@H](C(=O)N2CCCCC2)N(C)C(=O)[C@H](C2CCCCC2)N(C)C(=O)C2(CCCC2)NC(=O)CN(CCOCC(F)(F)F)C(=O)[C@H](CCc2ccc(C(F)(F)F)c(Cl)c2)NC(=O)CN(C)C(=O)[C@H](CC2CCCCC2)N(C)C(=O)CN(C)C(=O)CN(C)C1=O [Compound 2024] ([NMeL]I[Sar][Sar][NMeCha][Sar][hPhe(3-Cl-4-CF3)][X132][Ac5c][NMeChg][NMeD]-Piperidide; lactam N-11 (inferred); C-terminus assumed),4.3 nM
